Data as given in US9289430B2, “Compounds and methods for inhibiting phosphate transport” (Ardelyx, Inc., priority 2010, dated 2016).

Key:
[1] = target: T1, human NaP2b (SLC34A2) (Homo sapiens, UniProt O95436); assay: NaP2b-mediated Pi transport: 33P phosphate uptake into transfected HEK293 cells; assay type: cell-based; settings: human protein with threonine inserted after residue 37 and N39D, 100 uM KH2PO4, read-out: pIC50 range for human Nap2b (converted)
T1 construct: host or cells: HEK293
T1 sequence (O95436 1-690): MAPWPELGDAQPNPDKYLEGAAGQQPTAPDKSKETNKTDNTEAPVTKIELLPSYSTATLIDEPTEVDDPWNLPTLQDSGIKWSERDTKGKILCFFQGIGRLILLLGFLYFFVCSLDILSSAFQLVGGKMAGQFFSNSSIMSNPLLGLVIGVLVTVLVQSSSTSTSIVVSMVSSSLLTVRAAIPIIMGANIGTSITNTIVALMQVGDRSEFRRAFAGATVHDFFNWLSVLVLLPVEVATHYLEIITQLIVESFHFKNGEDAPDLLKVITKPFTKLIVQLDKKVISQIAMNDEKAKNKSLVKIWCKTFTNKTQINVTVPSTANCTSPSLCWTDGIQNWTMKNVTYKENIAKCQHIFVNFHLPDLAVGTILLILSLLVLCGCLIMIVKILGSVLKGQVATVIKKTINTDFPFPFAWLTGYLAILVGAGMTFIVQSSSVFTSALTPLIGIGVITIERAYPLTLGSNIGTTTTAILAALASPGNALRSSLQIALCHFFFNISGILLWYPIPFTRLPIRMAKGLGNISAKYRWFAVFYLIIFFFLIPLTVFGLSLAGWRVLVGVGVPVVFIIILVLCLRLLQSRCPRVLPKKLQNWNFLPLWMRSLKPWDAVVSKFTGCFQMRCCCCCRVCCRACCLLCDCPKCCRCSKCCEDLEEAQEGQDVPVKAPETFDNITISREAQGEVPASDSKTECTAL
Outline: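 Transiently transfected HEK293 cells, human clone carrying Thr insertion after residue 37 and N39D; PiT transport silenced pharmacologically. ^33P-phosphate uptake in sodium buffer (100 uM KH2PO4, pH 7.4) versus choline buffer, 3-30 min at room temperature, twelve concentrations 0.1 nM–30 uM in duplicate; scintillation counting, pIC50 derived.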

[2] = target: T2, rat NaP2b (SLC34A2) (Rattus norvegicus, UniProt Q9JJ09); assay: as above; assay type: cell-based; settings: 100 uM KH2PO4, PiT-silencing agent, read-out: pIC50 range for rat Nap2b (converted)
T2 construct: host or cells: HEK293
T2 sequence (Q9JJ09 1-695): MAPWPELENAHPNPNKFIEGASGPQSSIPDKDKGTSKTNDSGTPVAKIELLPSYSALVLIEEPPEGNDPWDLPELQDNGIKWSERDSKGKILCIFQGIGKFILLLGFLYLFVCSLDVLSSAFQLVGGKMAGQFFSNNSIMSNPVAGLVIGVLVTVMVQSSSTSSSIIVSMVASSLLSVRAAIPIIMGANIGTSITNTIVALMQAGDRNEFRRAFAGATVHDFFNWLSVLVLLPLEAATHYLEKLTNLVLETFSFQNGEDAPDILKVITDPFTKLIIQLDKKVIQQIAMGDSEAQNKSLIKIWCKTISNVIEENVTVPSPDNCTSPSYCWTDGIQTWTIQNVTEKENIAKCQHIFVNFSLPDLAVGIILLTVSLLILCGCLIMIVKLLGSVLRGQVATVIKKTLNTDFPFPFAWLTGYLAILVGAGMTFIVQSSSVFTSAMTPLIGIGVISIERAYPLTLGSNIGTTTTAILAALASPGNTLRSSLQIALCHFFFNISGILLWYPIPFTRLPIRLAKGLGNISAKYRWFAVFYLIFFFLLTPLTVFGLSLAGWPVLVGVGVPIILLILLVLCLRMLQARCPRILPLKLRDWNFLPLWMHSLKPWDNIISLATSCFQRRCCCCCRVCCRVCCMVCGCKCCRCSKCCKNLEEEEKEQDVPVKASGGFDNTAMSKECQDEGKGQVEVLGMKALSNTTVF

[3] = Fecal recovery of orally administered compounds; assay type: in vivo, Sprague-Dawley rats; settings: rats, oral gavage, nominal 10 mg/kg (actual 7.6-11 mg/kg), feces 0-48 hr after dosing
Description: Quantitative determination of test compound level in feces after oral gavage was performed using the same set of animals used to determine test compound concentration in plasma (Example 30). The animals were kept in metabolic cages and feces were collected from the time of dosing until 48 hr after dosing. Upon collection, feces was dried by lyophilization and ground to a visually homogenous powder. Duplicate samples of ground feces from each individual animal were weighed out and extracted using organic solvent. Extracted samples were then diluted into mobile phase and test compound levels were quantitatively determined by LC-MS/MS analysis as described in “Example 30” except that the standard curve was prepared in a feces matrix. Extraction conditions were not optimized for individual compounds, and thus may represent a minimal level of recovery.

[4] = Determination of compound Cmax and AUC after oral gavage; assay type: in vivo, Sprague-Dawley rats; settings: Sprague-Dawley, rat plasma, nominal 10 mg/kg (actual 7.6-11 mg/kg), sampling 0.5-4 h
Description: Sprague-Dawley rats were orally gavaged with test article at a nominal dose of 2.5 or 10 mg/kg and blood was collected at 0.5, 1, 2 and 4 h. Blood samples were processed to plasma using K2EDTA as an anticoagulant. Plasma samples were treated with acetonitrile containing an internal standard, precipitated proteins removed by centrifugation. Supernatants were analyzed by LC-MS/MS and compound concentrations were determined by interpolated from a standard curve prepared in plasma. All compounds were orally dosed at the dosage shown, and pharmacokinetic parameters determined

## CN(CCN1CCOCC1)C(=O)c1cccc(C(=O)Nc2ccc(N3CCCCC3)cc2C(=O)Nc2ccn(-c3cccc(C(F)(F)F)c3)n2)c1 [Example 11, N1-Methyl-N1-(2-morpholinoethyl)-N3-(4-(piperidin-1-yl)-2-((1-(3-(trifluoromethyl)phenyl)-1H-pyrazol-3-yl)carbamoyl)phenyl)isophthalamide]
[1]
  IC50: < 1000 nM
[2]
  IC50: < 1000 nM
[3]
  % recovered in feces: 47%

## CN(CCN1CCOCC1)C(=O)c1cccc(C(=O)Nc2ccc(Cl)cc2C(=O)Nc2ccn(-c3cccc(C(F)(F)F)c3)n2)c1 [Example 14, N1-(4-Chloro-2-((1-(3-(trifluoromethyl)phenyl)-1H-pyrazol-3-yl)carbamoyl)phenyl)-N3-methyl-N3-(2-morpholinoethyl)isophthalamide 2,2,2-trifluoroacetate]
[1]
  IC50: < 1000 nM
[2]
  IC50: < 1000 nM
[4]
  AUC: 788 ng·h/mL
  Cmax: 487 ng/mL
[3]
  % recovered in feces: 6.6%

## O=C(O)CCOCCOCCOCCNC(=O)Cc1cccc(SCc2cccc(C(=O)Nc3ccc(N4CCCCC4)cc3C(=O)Nc3ccn(-c4cccc(C(F)(F)F)c4)n3)c2)c1 [Example 26, 2-Oxo-1-(3-((3-((4-(piperidin-1-yl)-2-((1-(3-(trifluoromethyl)phenyl)-1H-pyrazol-3-yl)carbamoyl)phenyl)carbamoyl)benzyl)thio)phenyl)-6,9,12-trioxa-3-azapentadecan-15-oic acid]
[1]
  IC50: < 1000 nM
[2]
  IC50: < 1000 nM
[4]
  AUC: < 3 ng·h/mL
[3]
  % recovered in feces: 9.5%
